A word on the IC50: it is the concentration that inhibits the measured activity by half.

Molecules are shown by their SMILES.

The assay addresses human Cav2.2 (Homo sapiens, UniProt Q00975). As to the kind of experiment: Assessment of calcium channel activity using FLIPR (Ca2+ influx in IMR32 cells). The class given is cell-based. The note with it: IMR32 cells endogenously expressing human Cav2.2; 60 minute pre-incubation; 2 μM nifedipine; depolarized with 80 mM KCl, 5 mM CaCl2. The method, then:
(i) In Vitro Methods—Assessment of Calcium Channel Activity Using FLIPR:
The IMR32 cells were maintained in MEM media containing 10% (v/v) FBS, 1% (v/v) antibiotic/antimitotic, 1% (v/v) sodium pyruvate and 1% (v/v) MEM NEAA. Following dissociation in 0.05% (v/v) trypsin/EDTA, cells were seeded into black 1×96-well plates (Corning Cellbind) at a density of 1-1.2×10^5 cells/well and incubated in the maintenance media above for 48 hours at 37° C. […] After dye loading and a subsequent 60 minute pre-incubation with compounds (full log dilutions from 10 μM to 0.1 nM) in the presence of 1.3 mM CaCl2 and 2 μM nifedipine to block endogenous L-type channels, the external Ca^2+ concentration was increased to 5 mM CaCl2 and the cells concomitantly depolarized with 80 mM KCl to assay channel activity. To determine the IC50 values, the percent inhibition of the compound at each concentration was determined relative to the activity in the absence of inhibitor, and data was fitted using non-linear regression sigmoidal dose response curve analysis with GraphPad Prism®.

Chain of human Cav2.2 (Q00975 whole entry): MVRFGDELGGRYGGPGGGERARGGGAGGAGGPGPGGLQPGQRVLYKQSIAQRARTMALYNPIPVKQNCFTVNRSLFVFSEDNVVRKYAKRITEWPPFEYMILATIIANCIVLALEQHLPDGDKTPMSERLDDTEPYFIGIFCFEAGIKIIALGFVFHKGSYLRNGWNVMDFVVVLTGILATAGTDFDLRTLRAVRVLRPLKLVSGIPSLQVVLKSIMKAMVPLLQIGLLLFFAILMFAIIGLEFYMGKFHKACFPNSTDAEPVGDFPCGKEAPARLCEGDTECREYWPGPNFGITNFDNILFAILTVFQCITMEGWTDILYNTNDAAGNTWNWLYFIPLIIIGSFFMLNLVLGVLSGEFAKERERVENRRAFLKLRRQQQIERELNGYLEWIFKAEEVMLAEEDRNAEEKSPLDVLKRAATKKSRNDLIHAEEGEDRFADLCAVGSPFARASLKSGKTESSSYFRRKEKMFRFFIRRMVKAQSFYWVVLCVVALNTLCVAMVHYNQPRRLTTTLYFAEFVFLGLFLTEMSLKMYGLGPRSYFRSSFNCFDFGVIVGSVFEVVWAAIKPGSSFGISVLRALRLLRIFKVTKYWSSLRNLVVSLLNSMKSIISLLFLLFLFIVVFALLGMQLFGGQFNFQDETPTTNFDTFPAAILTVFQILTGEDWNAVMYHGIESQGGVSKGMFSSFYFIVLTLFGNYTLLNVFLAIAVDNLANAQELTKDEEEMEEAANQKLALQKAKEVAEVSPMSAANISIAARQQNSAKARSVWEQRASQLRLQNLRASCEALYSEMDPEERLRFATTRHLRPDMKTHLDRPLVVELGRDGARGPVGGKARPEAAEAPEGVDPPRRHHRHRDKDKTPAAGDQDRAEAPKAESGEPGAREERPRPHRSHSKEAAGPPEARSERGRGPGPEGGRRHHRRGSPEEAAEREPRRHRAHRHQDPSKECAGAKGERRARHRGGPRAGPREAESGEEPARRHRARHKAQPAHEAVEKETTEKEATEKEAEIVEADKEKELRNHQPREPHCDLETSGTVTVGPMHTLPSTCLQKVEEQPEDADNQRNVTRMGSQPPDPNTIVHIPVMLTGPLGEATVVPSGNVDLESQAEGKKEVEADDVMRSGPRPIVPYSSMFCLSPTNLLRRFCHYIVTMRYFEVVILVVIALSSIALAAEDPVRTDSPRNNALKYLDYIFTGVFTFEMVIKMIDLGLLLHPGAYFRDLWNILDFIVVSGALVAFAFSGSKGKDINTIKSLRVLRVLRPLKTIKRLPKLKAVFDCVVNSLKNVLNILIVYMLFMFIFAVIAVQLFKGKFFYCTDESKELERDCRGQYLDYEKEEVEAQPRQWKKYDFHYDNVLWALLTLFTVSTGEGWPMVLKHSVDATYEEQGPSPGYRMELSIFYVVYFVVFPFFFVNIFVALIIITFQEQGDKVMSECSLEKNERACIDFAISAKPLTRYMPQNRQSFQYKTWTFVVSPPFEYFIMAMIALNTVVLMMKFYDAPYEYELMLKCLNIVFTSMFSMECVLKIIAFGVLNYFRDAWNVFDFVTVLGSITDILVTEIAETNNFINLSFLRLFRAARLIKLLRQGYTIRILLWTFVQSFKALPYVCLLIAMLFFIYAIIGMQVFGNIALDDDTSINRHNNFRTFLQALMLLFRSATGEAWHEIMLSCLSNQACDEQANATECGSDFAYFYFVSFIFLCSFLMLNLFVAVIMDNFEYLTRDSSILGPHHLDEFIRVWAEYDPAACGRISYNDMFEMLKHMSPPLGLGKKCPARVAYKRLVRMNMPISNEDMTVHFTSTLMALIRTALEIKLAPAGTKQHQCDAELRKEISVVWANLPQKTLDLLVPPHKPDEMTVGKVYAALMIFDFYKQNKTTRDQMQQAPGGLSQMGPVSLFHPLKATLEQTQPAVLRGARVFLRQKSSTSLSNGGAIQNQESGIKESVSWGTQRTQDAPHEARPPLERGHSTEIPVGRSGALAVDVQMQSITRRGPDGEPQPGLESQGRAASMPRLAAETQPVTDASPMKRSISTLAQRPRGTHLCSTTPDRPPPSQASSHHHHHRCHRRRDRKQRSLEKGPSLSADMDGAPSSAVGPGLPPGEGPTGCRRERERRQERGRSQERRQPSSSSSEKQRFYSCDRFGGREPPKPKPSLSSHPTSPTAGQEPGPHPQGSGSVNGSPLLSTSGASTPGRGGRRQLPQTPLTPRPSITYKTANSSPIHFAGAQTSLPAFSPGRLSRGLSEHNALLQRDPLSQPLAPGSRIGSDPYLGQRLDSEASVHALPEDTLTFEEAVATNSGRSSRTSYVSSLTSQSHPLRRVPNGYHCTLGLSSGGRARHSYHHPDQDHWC
Chain of human Cav2.2 (P54289 25-951 partner limits assumed): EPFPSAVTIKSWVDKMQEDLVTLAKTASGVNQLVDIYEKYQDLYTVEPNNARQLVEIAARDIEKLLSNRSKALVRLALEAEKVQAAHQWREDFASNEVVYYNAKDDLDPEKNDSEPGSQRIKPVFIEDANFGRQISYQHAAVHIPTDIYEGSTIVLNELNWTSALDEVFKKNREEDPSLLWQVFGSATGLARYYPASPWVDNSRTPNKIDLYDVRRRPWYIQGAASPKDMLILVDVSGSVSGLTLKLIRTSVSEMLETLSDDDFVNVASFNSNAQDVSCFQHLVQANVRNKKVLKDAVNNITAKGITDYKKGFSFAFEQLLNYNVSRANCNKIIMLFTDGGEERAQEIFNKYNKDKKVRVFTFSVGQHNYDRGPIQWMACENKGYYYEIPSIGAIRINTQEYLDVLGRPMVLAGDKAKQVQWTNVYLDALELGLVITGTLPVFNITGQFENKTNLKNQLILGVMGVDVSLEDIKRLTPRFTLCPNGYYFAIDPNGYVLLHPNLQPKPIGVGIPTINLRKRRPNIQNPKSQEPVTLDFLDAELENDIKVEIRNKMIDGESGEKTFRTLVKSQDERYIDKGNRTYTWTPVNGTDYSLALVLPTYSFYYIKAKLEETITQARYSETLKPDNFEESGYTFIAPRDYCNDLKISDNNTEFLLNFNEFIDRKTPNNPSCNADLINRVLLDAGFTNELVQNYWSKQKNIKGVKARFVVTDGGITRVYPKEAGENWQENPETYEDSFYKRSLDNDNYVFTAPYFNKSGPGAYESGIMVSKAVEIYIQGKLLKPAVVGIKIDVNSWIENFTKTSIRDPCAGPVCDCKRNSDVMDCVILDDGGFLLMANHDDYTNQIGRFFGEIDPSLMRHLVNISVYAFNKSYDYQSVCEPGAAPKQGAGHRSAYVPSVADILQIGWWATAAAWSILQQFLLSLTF
Chain of human Cav2.2 (P54289 952-1103 partner limits assumed): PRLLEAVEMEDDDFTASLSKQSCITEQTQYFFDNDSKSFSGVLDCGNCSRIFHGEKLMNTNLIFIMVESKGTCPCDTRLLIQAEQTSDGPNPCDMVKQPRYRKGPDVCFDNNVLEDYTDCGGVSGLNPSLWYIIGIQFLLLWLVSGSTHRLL
Chain of human Cav2.2 (P54284 whole entry partner): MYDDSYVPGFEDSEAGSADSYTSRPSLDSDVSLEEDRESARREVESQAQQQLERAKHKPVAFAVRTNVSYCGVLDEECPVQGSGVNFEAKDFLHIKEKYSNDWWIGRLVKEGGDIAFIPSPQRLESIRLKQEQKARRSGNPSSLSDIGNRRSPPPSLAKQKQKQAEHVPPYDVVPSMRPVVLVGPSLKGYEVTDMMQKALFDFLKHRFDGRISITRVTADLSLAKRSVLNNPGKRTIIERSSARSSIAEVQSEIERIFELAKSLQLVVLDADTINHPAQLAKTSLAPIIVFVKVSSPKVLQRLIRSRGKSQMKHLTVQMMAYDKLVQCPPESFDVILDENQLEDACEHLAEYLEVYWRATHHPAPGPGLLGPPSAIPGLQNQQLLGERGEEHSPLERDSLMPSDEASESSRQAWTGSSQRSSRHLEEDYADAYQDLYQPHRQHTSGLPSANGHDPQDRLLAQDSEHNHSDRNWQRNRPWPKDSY

With `O=C(CN1CCC(c2ccc(F)cc2)C1=O)N1CCc2ccc(F)cc2C1` (stereo not shown) [Example 255, 1-[2-(7-fluoro-3,4-dihydroisoquinolin-2(1H)-yl)-2-oxoethyl]-3-(4-fluorophenyl)pyrrolidin-2-one], the IC50 was found to be 9.89 µM.

As for `O=C1N(Cc2nc(-c3cnccn3)no2)CCC1(c1ccccc1)c1ccccc1` [Example 230, 3,3-diphenyl-1-[(3-pyrazin-2-yl-1,2,4-oxadiazol-5-yl)methyl]pyrrolidin-2-one], the IC50 amounted to 8.99 µM. As for `COc1ccc(C2(c3ccc(OC)cc3)CCN(CCN(C)CC(O)COc3cccc4ncccc34)C2=O)cc1` (stereo not shown) [Example 106, 1-{2-[[2-hydroxy-3-(quinolin-5-yloxy)propyl](methyl)amino]ethyl}-3,3-bis(4-methoxyphenyl)pyrrolidin-2-one], the figure is 0.73 µM; as for `O=C(CN1CCC(c2ccccc2)(c2ccccc2)C1=O)NCc1cccc(C(F)(F)F)c1` [Example 7, 2-(2-oxo-3,3-diphenylpyrrolidin-1-yl)-N-[3-(trifluoromethyl)benzyl]acetamide], 2.33 µM. In the case of `O=C(CN1CCC(c2ccc(F)cc2)(c2ccc(F)cc2)C1=O)Nc1ccc(C(F)(F)F)nc1` [Example 224, 2-[3,3-bis(4-fluorophenyl)-2-oxopyrrolidin-1-yl]-N-[6-(trifluoromethyl)pyridin-3-yl]acetamide], the IC50 amounted to 3.88 µM. With `O=C(CN1CCCC(c2ccccc2)C1=O)N1Cc2ccc(F)cc2C1` (stereo not shown) [Example 95, 1-[2-(5-fluoro-1,3-dihydro-2H-isoindol-2-yl)-2-oxoethyl]-3-phenylpiperidin-2-one], the IC50 stood at 34.8 µM. Take `O=C(CN1CCC(c2ccccc2)(c2ccccc2)C1=O)NCCc1cccc(C(F)(F)F)c1` [Example 10, 2-(2-oxo-3,3-diphenylpyrrolidin-1-yl)-N-{2-[3-(trifluoromethyl)phenyl]ethyl}acetamide]: the IC50 was 3.87 µM. Consider `O=C(CN1CCCC(c2ccccc2)(c2ccccc2)C1=O)N1CCc2ccccc2C1` [Example 260, 1-[2-(3,4-dihydroisoquinolin-2(1H)-yl)-2-oxoethyl]-3,3-diphenylpiperidin-2-one], for which the IC50 came out at 7.12 µM.

For the molecule `O=C(CN1CCC(c2ccccc2)(c2ccccc2)C1=O)N1CCC(C(O)(c2ccccc2)c2ccccc2)CC1` [Example 34, 1-(2-{4-[hydroxy(diphenyl)methyl]piperidin-1-yl}-2-oxoethyl)-3,3-diphenylpyrrolidin-2-one], the IC50 was 0.96 µM. For `COc1cc(CN2CCN(CCN3CCC(c4ccc(F)cc4)(c4ccc(F)cc4)C3=O)CC2)cc(OC)c1OC` [Example 109, 3,3-bis(4-fluorophenyl)-1-{2-[4-(3,4,5-trimethoxybenzyl)piperazin-1-yl]ethyl}pyrrolidin-2-one], the IC50 amounted to 1.76 µM.

Take `O=C(CN1CCCC(c2ccccc2)(c2ccccc2)C1=O)N1CCC(NC(c2ccccc2)c2ccccc2)CC1` [Example 87, 1-{2-[4-(benzhydrylamino)piperidin-1-yl]-2-oxoethyl}-3,3-diphenylpiperidin-2-one]: the IC50 is 0.76 µM. `O=C(CN1CCC(c2ccccc2)(c2ccccc2)C1=O)N1CCCC(c2ccccc2)(c2ccccc2)C1` [Example 24, 1-[2-(3,3-diphenylpiperidin-1-yl)-2-oxoethyl]-3,3-diphenylpyrrolidin-2-one]: the IC50 came out at 0.81 µM.

On to `CN(CCCN1CCC(c2ccc(F)cc2)(c2ccc(F)cc2)C1=O)C1Cc2ccccc2C1` [Example 114, 1-{3-[2,3-dihydro-1H-inden-2-yl(methyl)amino]propyl}-3,3-bis(4-fluorophenyl)pyrrolidin-2-one], for which the IC50 is 1.53 µM. As to `CN(CCCN1CCCC(c2ccccc2)(c2ccccc2)C1=O)CCc1ccccc1` [Example 117, 1-{3-[methyl(2-phenylethyl)amino]propyl}-3,3-diphenylpiperidin-2-one], the IC50 was determined as 3.46 µM. As to `O=C(CN1CCNC(c2ccccc2)C1=O)N1CCN(C(c2ccccc2)c2ccccc2)CC1` (stereo not shown) [Example 102, 1-[2-(4-benzhydrylpiperazin-1-yl)-2-oxoethyl]-3-phenylpiperazin-2-one], the IC50 was 8.39 µM.

With `O=C(CN1CCC(c2ccc(Cl)c(Cl)c2)C1=O)N1Cc2ccc(F)cc2C1` (stereo not shown) [Example 270, 3-(3,4-dichlorophenyl)-1-[2-(5-fluoro-1,3-dihydro-2H-isoindol-2-yl)-2-oxoethyl]pyrrolidin-2-one], the IC50 worked out at 5.25 µM. As for `CC(CNC(=O)CN1CCCC(c2ccccc2)(c2ccccc2)C1=O)(c1ccccc1)c1ccccc1` [Example 77, N-(2,2-diphenylpropyl)-2-(2-oxo-3,3-diphenylpiperidin-1-yl)acetamide], the figure is 1.71 µM; as for `O=C1N(Cc2nc(-c3ccc(C(F)(F)F)cc3)no2)CCC1(c1ccc(F)cc1)c1ccc(F)cc1` [Example 190, 3,3-bis(4-fluorophenyl)-1-({3-[4-(trifluoromethyl)phenyl]-1,2,4-oxadiazol-5-yl}methyl)pyrrolidin-2-one], 7.07 µM. Regarding `O=C(CN1CCCC(c2ccccc2)(c2ccccc2)C1=O)N1CCN(Cc2cccc(Cl)c2)CC1` [Example 81, 1-{2-[4-(3-chlorobenzyl)piperazin-1-yl]-2-oxoethyl}-3,3-diphenylpiperidin-2-one], the IC50 turned out to be 1.32 µM. Take `O=C(CN1CCC(c2ccc(F)cc2)(c2ccc(F)cc2)C1=O)Nc1cccc(C(F)(F)F)n1` [Example 226, 2-[3,3-bis(4-fluorophenyl)-2-oxopyrrolidin-1-yl]-N-[6-(trifluoromethyl)pyridin-2-yl]acetamide]: the IC50 turned out to be 2.46 µM. As for `O=C(CN1CCC(c2ccccc2)(c2ccccc2)C1=O)N1CCN(Cc2cccc(C(F)(F)F)c2)CC1` [Example 37, 1-(2-oxo-2-{4-[3-(trifluoromethyl)benzyl]piperazin-1-yl}ethyl)-3,3-diphenylpyrrolidin-2-one], the figure is 1.03 µM. As for `O=C(CN1CCC(c2ccccc2)(c2ccccc2)C1=O)NC1CCN(C(c2ccccc2)c2ccccc2)CC1` [Example 48, N-(1-benzhydrylpiperidin-4-yl)-2-(2-oxo-3,3-diphenylpyrrolidin-1-yl)acetamide], the figure is 0.4 µM.

With `O=C1N(Cc2noc(-c3ccc(C(F)(F)F)cc3)n2)CCC1(c1ccccc1)c1ccccc1` [Example 196, 3,3-diphenyl-1-({5-[4-(trifluoromethyl)phenyl]-1,2,4-oxadiazol-3-yl}methyl)pyrrolidin-2-one], the IC50 was determined as 4.01 µM. On to `CC1(NC(=O)CN2CCC(c3ccccc3)(c3ccccc3)C2=O)CCN(Cc2ccccc2)C1` (stereo not shown) [Example 40, N-(1-benzyl-3-methylpyrrolidin-3-yl)-2-(2-oxo-3,3-diphenylpyrrolidin-1-yl)acetamide], for which the IC50 was found to be 2.11 µM. As for `O=C(CN1CCC(c2ccccc2)(c2ccccc2)C1=O)Nc1ccc(C(F)(F)F)nc1` [Example 248, 2-(2-oxo-3,3-diphenylpyrrolidin-1-yl)-N-[6-(trifluoromethyl)pyridin-3-yl]acetamide], the figure is 8.84 µM; as for `COc1cccc(CCN(C)CCCN2CCCC(c3ccc(F)cc3)(c3ccc(F)cc3)C2=O)c1` [Example 121, 3,3-bis(4-fluorophenyl)-1-{3-[[2-(3-methoxyphenyl)ethyl](methyl)amino]propyl}piperidin-2-one], 1.63 µM; as for `CN(CCc1ccccc1)CCN1CCCC(c2ccc(F)cc2)(c2ccc(F)cc2)C1=O` [Example 122, 3,3-bis(4-fluorophenyl)-1-{2-[methyl(2-phenylethyl)amino]ethyl}piperidin-2-one], 2.35 µM. For the molecule `O=C1N(Cc2nc(-c3ccc(C(F)(F)F)cc3)no2)CCC1(c1ccccc1)c1ccccc1` [Example 62, 3,3-diphenyl-1-({3-[4-(trifluoromethyl)phenyl]-1,2,4-oxadiazol-5-yl}methyl)pyrrolidin-2-one], the IC50 came to 8.71 µM. For the molecule `O=C(CN1CCC(c2ccccc2)(c2ccccc2)C1=O)NC1(c2ccccc2)CCC1` [Example 11, 2-(2-oxo-3,3-diphenylpyrrolidin-1-yl)-N-(1-phenylcyclobutyl)acetamide], the IC50 amounted to 0.89 µM. `O=C(CN1CCC(c2ccc(F)cc2)(c2ccc(F)cc2)C1=O)N1C[C@@H]2CCCN(Cc3cccc(C(F)(F)F)c3)[C@@H]2C1` [Example 210, 3,3-bis(4-fluorophenyl)-1-(2-oxo-2-{(4aS,7aS)-1-[3-(trifluoromethyl)benzyl]octahydro-6H-pyrrolo[3,4-b]pyridin-6-yl}ethyl)pyrrolidin-2-one]: the IC50 was determined as 0.96 µM. Take `O=C1C(c2ccc(F)cc2)CCN1Cc1nc(-c2ccc(C(F)(F)F)cc2)no1` (stereo not shown) [Example 189, 3-(4-fluorophenyl)-1-({3-[4-(trifluoromethyl)phenyl]-1,2,4-oxadiazol-5-yl}methyl)pyrrolidin-2-one]: the IC50 was determined as 5.82 µM. Consider `O=C1N(Cc2nc(-c3ccc(Cl)cc3)no2)CCC1(c1ccccc1)c1ccccc1` [Example 193, 1-{[3-(4-chlorophenyl)-1,2,4-oxadiazol-5-yl]methyl}-3,3-diphenylpyrrolidin-2-one], for which the IC50 is 4.67 µM.

For `O=C1N(CCN2CCc3ccc(C(F)(F)F)cc3C2)CCC1(c1ccccc1)c1ccccc1` [Example 67, 3,3-diphenyl-1-{2-[7-(trifluoromethyl)-3,4-dihydroisoquinolin-2(1H)-yl]ethyl}pyrrolidin-2-one], the IC50 is 3.44 µM. For `O=C1N(S(=O)(=O)c2cccc(C(F)(F)F)c2)CCC1(c1ccc(F)cc1)c1ccc(F)cc1` [Example 145, 3,3-bis(4-fluorophenyl)-1-{[3-(trifluoromethyl)phenyl]sulfonyl}pyrrolidin-2-one], the IC50 amounted to 9.64 µM.

Values taken from patent publication US8044069B2, “Compounds as calcium channel blockers” (Abbott Laboratories, priority 2008, dated 2011).
